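In this assay, cells in 96-well plates receive the compound at five concentrations for 48 hours. Endpoints are linearly interpolated between the surrounding concentrations. TGI: total growth inhibition.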 Where a SMILES comes first, the peptide text is derived from it. [ ]: non-standard residue; d: D form. The star is where a group is joined. NMeAc5c = CNC1(C(=O)O)CCCC1; Boc = CC(C)(C)OC(=O)*; OBn = c1ccc(CO*)cc1
Assays:
Assay in all cases: NCI-60 cell line screen, 48 h
HS 578T breast = system: HS 578T breast
PC-3 prostate = system: PC-3 prostate
SN12C renal = system: SN12C renal
UO-31 renal = system: UO-31 renal
SF-539 CNS = system: SF-539 CNS
SK-MEL-5 melanoma = system: SK-MEL-5 melanoma
NCI-H522 lung = system: NCI-H522 lung
MDA-MB-435 = system: MDA-MB-435
NCI-H23 lung = system: NCI-H23 lung
SK-OV-3 ovarian = system: SK-OV-3 ovarian

| SMILES | TGI (HS 578T breast) | TGI (PC-3 prostate) | TGI (SN12C renal) | TGI (UO-31 renal) | TGI (SF-539 CNS) | TGI (SK-MEL-5 melanoma) | TGI (NCI-H522 lung) | TGI (MDA-MB-435) | TGI (NCI-H23 lung) | TGI (SK-OV-3 ovarian) |
| --- | --- | --- | --- | --- | --- | --- | --- | --- | --- | --- |
| COc1cc(Br)cc2cc(-c3cn4ccsc4n3)c(=O)oc12 | > 100 µM | > 100 µM | > 100 µM | > 100 µM | > 100 µM | 49.9 µM | > 100 µM | 51.2 µM | > 100 µM | > 100 µM |
| ClCCN1CCC2(CC1)SSC1(CCN(CCCl)CC1)S2 | > 100 µM | > 100 µM | 72.8 µM | > 100 µM | 56.3 µM | > 100 µM |  | > 100 µM | > 100 µM | 98.7 µM |
| COC(=O)c1cc(=O)nc2sc3cccc(C)c3n12 | > 100 µM | > 100 µM | > 100 µM |  | > 100 µM | > 100 µM | 48.3 µM | > 100 µM | > 100 µM | > 100 µM |
| O=c1c2cc([N+](=O)[O-])cnc2sn1-c1ccc([N+](=O)[O-])cc1 | 90 µM | 83.8 µM | > 100 µM | > 100 µM | > 100 µM | > 100 µM | 25.7 µM | > 100 µM | > 100 µM | > 100 µM |
| CC(=O)NC(Cc1ccc(O)cc1)C(=O)O (stereo unspecified) | > 100 µM | > 100 µM | > 100 µM | > 100 µM |  | > 100 µM | > 100 µM | > 100 µM | > 100 µM | > 100 µM |
| NC(N)=N/N=C/c1c(-c2ccc(N)cc2)nc2sccn12 | > 100 µM | 58.7 µM | 48.7 µM | 39.2 µM | 63.9 µM | > 100 µM | 76 µM | 94 µM | 95.2 µM | 64 µM |
| O=c1[nH]c(Nc2cccc(CC(F)(F)F)c2)nc2nc[nH]c12 | > 100 µM | > 100 µM | > 100 µM | > 100 µM | > 100 µM | > 100 µM | > 100 µM | > 100 µM | > 100 µM | > 100 µM |
| O=c1ccc(-c2ccccc2)n[nH]1 | > 100 µM | > 100 µM | > 100 µM | > 100 µM |  | > 100 µM | > 100 µM | > 100 µM | > 100 µM |  |
| Nc1nc(Cl)cc(NCC2(CO)CC(=O)C2)n1 | > 100 µM | > 100 µM | > 100 µM | > 100 µM | > 100 µM | > 100 µM | > 100 µM | > 100 µM | > 100 µM | > 100 µM |
| CC1(C)OC(=O)N(c2ccccc2)C12C=Cc1cc([N+](=O)[O-])cc([N+](=O)[O-])c1O2 (stereo unspecified) | > 100 µM | > 100 µM | > 100 µM | > 100 µM |  | > 100 µM | > 100 µM | > 100 µM | > 100 µM | > 100 µM |
| COc1ccc(-c2cc(O)c3nc4ccccc4n3c2)cc1 | > 100 µM | > 100 µM | > 100 µM | > 100 µM | > 100 µM |  | > 100 µM | > 100 µM | > 100 µM |  |
| COc1ccc(-c2c(C#N)c(-c3ccc(C)cc3)n(NS(=O)(=O)c3ccc(C)cc3)c(=O)c2C#N)cc1 | 75.1 µM | > 100 µM | > 100 µM |  | > 100 µM | 58.3 µM | > 100 µM | > 100 µM |  | > 100 µM |
| COc1cc(C2c3cc4c(cc3OC(N3CCOCC3)C2C)OCO4)ccc1O (stereo unspecified) | 41.9 µM | > 100 µM | > 100 µM | > 92.8 µM | 35.6 µM | > 80.4 µM | 58.4 µM | > 26.3 µM | > 95.7 µM |  |
| O=C1CCCSC(=O)N1Cc1ccccc1 | > 100 µM | > 100 µM | > 100 µM |  | > 100 µM | > 100 µM | > 100 µM | > 100 µM | > 100 µM | > 100 µM |
| CCOC(=O)c1csc(NC(=O)CN2CCOCC2)n1 | > 100 µM | > 100 µM |  | > 100 µM | > 100 µM | > 100 µM |  | > 100 µM | > 100 µM | > 100 µM |
| Cc1cn2c(/C=N/N=C(N)N)c(-c3cccc([N+](=O)[O-])c3)nc2s1 | 5.19 µM | 4.08 µM | 3.08 µM | 19.6 µM | 4.05 µM | 3.13 µM | 3.91 µM | 3.21 µM | 5.11 µM |  |
| Cc1ccc(C(=O)O)cc1S(=O)(=O)Nn1cnc2ccc(S(=O)(=O)Nc3ccccc3C(=O)O)cc2c1=O | > 100 µM | > 100 µM | > 100 µM | > 100 µM | > 100 µM |  | > 100 µM | > 100 µM | > 100 µM | > 100 µM |
| N#CC1(C#N)N[C@@H](c2ccsc2)[C@H]2C(=O)N(c3ccccc3)C(=O)[C@H]21 | > 100 µM | > 100 µM | > 100 µM | > 100 µM |  | > 100 µM | > 100 µM | > 100 µM | > 100 µM | > 100 µM |

| SMILES | TGI (HS 578T breast) | TGI (PC-3 prostate) | TGI (SN12C renal) | TGI (UO-31 renal) | TGI (SF-539 CNS) | TGI (SK-MEL-5 melanoma) | TGI (NCI-H522 lung) | TGI (MDA-MB-435) | TGI (NCI-H23 lung) | TGI (SK-OV-3 ovarian) |
| --- | --- | --- | --- | --- | --- | --- | --- | --- | --- | --- |
| O=C(N/N=C(/COc1ccc(Cl)cc1)N=Cc1ccncc1)c1ccncc1 | > 100 µM | > 100 µM | > 100 µM |  | > 100 µM |  | > 100 µM | > 100 µM | > 100 µM | > 100 µM |
| CCOC(=O)CSc1c(C(=O)OCC)c(=O)n(-c2ccccc2)c(=S)n1-c1ccccc1 | > 100 µM | > 100 µM | > 100 µM | > 100 µM |  | > 100 µM | > 100 µM | > 100 µM | > 100 µM | > 100 µM |
| Nc1nc(SCCc2ccccc2)c2[nH]cnc2n1 | > 100 µM | > 100 µM | > 100 µM | > 100 µM |  | > 100 µM | > 100 µM | > 100 µM | > 100 µM |  |
| S=C1Nc2ccccc2SC1c1ccccc1 (stereo unspecified) | 83.2 µM | > 100 µM | > 100 µM | > 100 µM |  | > 100 µM | > 100 µM | > 100 µM | > 100 µM | > 100 µM |
| COC(=O)c1c(C)cccc1C1CN=NC12Cc1ccc(C)cc1C2=O (stereo unspecified) | > 100 µM | > 100 µM | > 100 µM | > 100 µM | > 100 µM | 44.1 µM | 91.9 µM | > 100 µM | > 100 µM |  |
| C1CN(c2nc3c(nnc4nc(N5CCOCC5)sc43)s2)CCO1 | > 100 µM | > 100 µM | > 100 µM | > 100 µM | > 100 µM | > 100 µM | > 100 µM | > 100 µM | > 100 µM |  |
| Cc1ccc(-c2n[nH]c(=O)n2N2C(=O)c3ccccc3C2=O)cc1 | > 100 µM | > 100 µM | > 100 µM | > 100 µM | > 100 µM | > 100 µM | > 100 µM | > 100 µM | > 100 µM |  |
| C#CCNC(CS)C(=O)O (stereo unspecified) | > 100 µM | > 100 µM |  | > 100 µM |  | > 100 µM | > 100 µM | > 100 µM | > 100 µM | > 100 µM |
| Cc1ccc(Cl)c2[nH]c(-c3ccccc3)cc(=O)c12 | > 100 µM | > 100 µM | > 100 µM |  |  | > 100 µM | > 100 µM | > 100 µM | > 100 µM | > 100 µM |
| NC(=O)NCCCC(NC(=O)OCCCCn1ccc(=O)[nH]c1=O)C(=O)O (stereo unspecified) | > 100 µM | > 100 µM | > 100 µM | > 100 µM | > 100 µM |  |  | > 100 µM | > 100 µM | > 100 µM |
| COc1ccc2cc(NC(=O)N/N=C\c3ccc([N+](=O)[O-])cc3)ccc2c1 | > 100 µM | > 100 µM | > 100 µM | 46.4 µM |  | > 100 µM | 51 µM | > 100 µM | 77.9 µM | > 100 µM |
| CC(=O)O[C@@H]1[C@H](C(C)C)[C@@H](OC(C)=O)C/C(C)=C/CC[C@]2(C)O[C@@H]12 | > 100 µM | > 100 µM | > 100 µM | > 100 µM |  | > 100 µM | > 100 µM | > 100 µM | > 100 µM | > 100 µM |
| CN(C(=O)C(Cc1ccccc1)NC(=O)OC(C)(C)C)C1(C(=O)NC(Cc2ccccc2)C(=O)OCc2ccccc2)CCCC1 (stereo not drawn) (Boc-Phe-[NMeAc5c]-Phe-OBn; configuration not given here) | > 100 µM | > 100 µM | > 100 µM | 82.6 µM | > 100 µM | > 100 µM |  | > 100 µM | > 100 µM | 41.3 µM |
| COc1ccc(N/N=C2\CCOc3ccc(C)cc3C2=O)cc1 | > 100 µM | > 100 µM | > 100 µM | > 100 µM | > 100 µM | 50.6 µM | > 100 µM | 15.4 µM |  | 80.2 µM |
| Nn1c(-c2ccccc2)nn(C(=O)c2ccccc2)c1=O | > 100 µM | > 100 µM | > 100 µM | > 100 µM | > 100 µM | > 100 µM | > 100 µM | > 100 µM | > 100 µM |  |
| CC(C)(C)OC(=O)NCCCCC1NC(=O)[C@@H]2Cc3c([nH]c4ccccc34)C(C3CCCCC3)N2C1=O (stereo partly specified) | > 100 µM | > 100 µM | > 100 µM | > 100 µM |  | > 100 µM | > 100 µM | > 100 µM | > 100 µM | > 100 µM |
| O=C1CCCc2cc3c(cc21)CC1(Cc2ccccc2C1)C3 | > 100 µM | > 100 µM | 41 µM |  | 18.7 µM | 16.2 µM | 21.5 µM | 4.61 µM | > 100 µM | 97.3 µM |
